The results in this text go back to publication PMC7404309, “Regulation of ABA-Non-Activated SNF1-Related Protein Kinase 2 Signaling Pathways by Phosphatidic Acid” (International Journal of Molecular Sciences, 2020).

Counter-ions that a name gives are not always drawn.

Test [1] concerns the target T1, PP2CA (Arabidopsis thaliana, UniProt P49598).
T1 construct: GST fusion, E. coli Rosetta, glutathione-Sepharose
T1 sequence (P49598 1-399): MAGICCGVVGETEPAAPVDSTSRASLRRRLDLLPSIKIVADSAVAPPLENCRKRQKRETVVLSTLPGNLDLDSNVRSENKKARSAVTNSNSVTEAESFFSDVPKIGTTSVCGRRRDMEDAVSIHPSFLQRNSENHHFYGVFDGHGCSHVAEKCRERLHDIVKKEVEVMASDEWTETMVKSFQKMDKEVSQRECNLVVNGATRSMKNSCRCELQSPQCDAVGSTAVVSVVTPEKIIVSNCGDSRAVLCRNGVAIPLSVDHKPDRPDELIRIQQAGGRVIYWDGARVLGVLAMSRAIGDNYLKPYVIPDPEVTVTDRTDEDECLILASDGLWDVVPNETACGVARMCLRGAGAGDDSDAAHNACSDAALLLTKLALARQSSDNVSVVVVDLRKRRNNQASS
The test can be described thus: ProFluor Ser/Thr PPase fluorescence assay. The test is classed as biochemical.

For test [2], the target named is T2, ABI1 (Arabidopsis thaliana, UniProt P49597).
T2 construct: GST fusion, E. coli Rosetta, glutathione-Sepharose
T2 sequence (P49597 1-434): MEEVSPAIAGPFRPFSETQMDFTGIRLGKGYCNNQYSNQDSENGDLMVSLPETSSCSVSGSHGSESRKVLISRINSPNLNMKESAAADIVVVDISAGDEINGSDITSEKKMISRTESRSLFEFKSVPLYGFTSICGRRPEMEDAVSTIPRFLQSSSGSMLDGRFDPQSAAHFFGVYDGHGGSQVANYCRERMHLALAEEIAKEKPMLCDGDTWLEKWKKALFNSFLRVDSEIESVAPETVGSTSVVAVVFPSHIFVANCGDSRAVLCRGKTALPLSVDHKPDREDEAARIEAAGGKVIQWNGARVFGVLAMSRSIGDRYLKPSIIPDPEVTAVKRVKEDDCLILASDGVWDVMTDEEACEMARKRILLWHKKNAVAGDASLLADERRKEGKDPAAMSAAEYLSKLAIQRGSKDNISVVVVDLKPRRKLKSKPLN
The test can be described thus: ProFluor Ser/Thr PPase fluorescence assay. The test is classed as biochemical.

For test [3], the target named is T3, ERD10 (Arabidopsis thaliana, UniProt P42759).
T3 construct: GST fusion, E. coli Rosetta, glutathione-Sepharose
T3 sequence (P42759 1-260): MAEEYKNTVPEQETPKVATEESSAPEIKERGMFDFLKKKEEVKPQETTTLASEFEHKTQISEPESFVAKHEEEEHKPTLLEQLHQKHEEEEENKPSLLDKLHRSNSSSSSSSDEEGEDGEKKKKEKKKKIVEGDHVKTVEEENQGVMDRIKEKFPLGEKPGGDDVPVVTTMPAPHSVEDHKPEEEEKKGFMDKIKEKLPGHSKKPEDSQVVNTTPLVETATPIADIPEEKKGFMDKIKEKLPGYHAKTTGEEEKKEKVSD
As to the kind of experiment: phospholipid blot (lipid overlay). The test is classed as binding. To be noted: TBST pH 7.5, 4 °C.

Turning to `CCCCCCCC/C=C\CCCCCCCC(=O)O[C@H](COC(=O)CCCCCCCCCCCCCCC)COP(=O)(O)O` [PA 16:0/18:1, 1-palmitoyl-2-oleoyl-sn-glycero-3-phosphate, sodium salt], the inhibition at 50 µM in test [1] and in test [2] was 50 to 60% throughout. The “phospholipid blot (lipid overlay)” value in test [3] was “the two dehydrins bound both PA and PS”.
